A short description of this data set: molar enthalpy of vaporization or sublimation. As to conditions: 298.15 K, Calvet microcalorimetry.

SMILES strings stand for the structures. ± gives the expanded uncertainty stated by the source.

`Cn1ccc2ccccc21` [1-methylindole]: where the note is “Liquid”, the molar enthalpy was determined as 14.9 ± 0.765 kcal/mol. Take `Cc1c[nH]c2ccccc12` [3-methyl-1H-indole]: the molar enthalpy (Crystal) was found to be 21.6 ± 0.908 kcal/mol. As to `Cc1cc2ccccc2[nH]1` [2-methylindole], under “Crystal”, the molar enthalpy was 21.2 ± 1.15 kcal/mol.
